Legend:
[1] = target: T1, human eosinophil [3H]-PGD2 binding site (Homo sapiens, UniProt Q9Y5Y4); assay: [3H]PGD2 binding in isolated human eosinophils; settings: number in brackets not defined
T1 construct: endogenous in cells; host or cells: isolated human eosinophils
T1 sequence (Q9Y5Y4 1-395): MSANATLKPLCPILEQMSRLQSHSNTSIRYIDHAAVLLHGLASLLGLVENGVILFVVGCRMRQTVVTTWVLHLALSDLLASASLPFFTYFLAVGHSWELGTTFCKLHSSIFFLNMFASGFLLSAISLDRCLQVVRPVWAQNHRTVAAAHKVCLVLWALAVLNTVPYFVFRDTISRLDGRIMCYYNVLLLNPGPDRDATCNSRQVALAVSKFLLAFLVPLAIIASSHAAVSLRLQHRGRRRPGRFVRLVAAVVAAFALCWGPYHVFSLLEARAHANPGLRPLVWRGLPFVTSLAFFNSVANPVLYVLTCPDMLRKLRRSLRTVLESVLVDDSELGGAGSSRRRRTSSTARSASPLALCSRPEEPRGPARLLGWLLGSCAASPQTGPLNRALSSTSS
From the text: As is shown in FIG. 1B, the effects of the prostaglandins and analogs on human eosinophil [^3H]-PGD2 binding site and eosinophil functional responses have the same order of potency (i.e., PGD2>PGF2a>>BW245C).

[2] = tested on: isolated human eosinophils; assay: Chemotaxis of isolated human eosinophils; format: cell-based
Description: In a specific example of this method, a competitive assay is performed to test compounds for their ability to interrupt the attraction of CRTH2 cells to PGD2. In this method, test compounds are diluted into the bottom wells of the Boyden chemotaxis chamber. A constant amount of PGD2 is also added to this dilution series, at a concentration known to have a chemotactic effect on CRTH2 cells. As a control, at least one aliquot contains only PGD2. Cells expressing CRTH2 are resuspended at 3-3.5×10^6 cells/ml in RPMI 1640 supplemented with 10 mM HEPES and 1 mg/ml bovine serum albumin (Sigma, St. Louis, Mo.), and placed into the upper wells of the chamber. The chambers are incubated for 90-120 minutes at 37° C. in a humidified CO2 incubator. After the incubation period, the number of migrating cells on the lower surface of the membrane filter is counted using light microscopy. The contribution of the test compound to the chemotactic activity of PGD2 is measured by comparing the chemotactic activity of the aliquots containing only PGD2 with the activity of aliquots containing test compound and PGD2. If addition of the test compound to the PGD2 solution results in a […] in the number of cells detected on the lower surface of the membrane relative to the number of cells detected using a solution containing only PGD2, then there is identified an antagonist of PGD2 induction of chemotactic activity of cells expressing CRTH2. In contrast, if the addition of the test compound to the PGD2 solution results in a […] in the number of cells detected on the lower surface of the membrane (relative to the number of cells detected using a solution containing only PGD2), then an […] of PGD2 induction of chemotactic activity of cells expressing CRTH2 is identified.
The chemotactic response of human T lymphocytes to PGD2, murine MDC and murine mSDF was also assayed. Chemotaxis was determined using a 48-well Boyden chamber (Neuroprobe, Cabin John, Md.), and 3.0 μm polycarbonate filters. Cells were resuspended (3-3.5×10^6 cells/ml) in RPMI 1640 supplemented with 10 mM HEPES and 1 mg/ml bovine serum albumin (Sigma, St. Louis, Mo.), and placed into the upper wells of the chamber. The compound to be tested was placed in the lower wells. The chambers were incubated for 90-120 minutes at 37° C. in a humidified CO2 incubator. At the end of the incubation period, the number of migrating cells on the filter (expressed per high power field) were enumerated microscopically. […] In FIG. 4, the chemotactic response of human basophils to PGD2 and C5a is shown.

[3] = tested on: isolated human eosinophils; assay: [Ca2+]i mobilization in isolated human eosinophils; format: cell-based
From the text: Calcium mobilization can be detected and measured by flow cytometry, and by labeling with fluorescent dyes that are trapped intracellularly. […] The ratio of fluorescence produced by the calcium-bound dye to that produce by the unbound dye is used to estimate the intracellular calcium concentration. In one embodiment, for example, the following method can be used. Cells that express CRTH2 are collected, and resuspended in fresh media at ˜2×10^5/ml the day before performing the calcium flux assay. Cells are incubated at 37° C. for not longer than 20-30 minutes, and then spun down and resuspended in 50 ml fresh PTI buffer (Hank's Buffer, pH 7.2-7.4; 10 mM Hepes; 1.6 mM CaCl2) containing Indo-1 AM, pre-warmed to 37° C., at a concentration of 10 million per ml. Cells are excited, and fluorescence is measured using a fluorimeter (Photon Technology Corporation, International). After the readout has stabilized, the time axis is reset, and PGD2 is added at a specific time point (e.g., 20 seconds). After response, the following reagents are added to the cuvette, to release and chelate total calcium, in the following order: 20 μl of 18% Triton X-100, 20 μl of 3M Tris, pH 8.5, and 20 μl of 0.5 M EGTA, pH 8.5. The experiment is repeated in the presence and the absence of a test compound. […] Therefore, in the presence of an […] test compound, the EC50 would be expected to be higher than this value, whereas in the presence of an agonist test compound, the EC50 would be expected to decrease.

How did the IC50 [1] turn out when `O=C(O)CCCCCCC1C(=O)NC(=O)N1CCC(O)C1CCCCC1` (stereo not drawn) [BW-245C] was run?
Its IC50 is greater than 100000 nM.

And the EC50 [2]?
Its EC50 is greater than 1000 nM.

What about the EC50 [3] of the same compound?
Its EC50 is greater than 1000 nM.

`CCCCC[C@H](O)/C=C/[C@H]1C(=O)C[C@H](O)[C@@H]1C/C=C\CCCC(=O)O` [PGD2, prostaglandin D2] was tested. Which IC50 [1] did it give?
Its IC50 is 25 nM.

And the EC50 [2]?
The EC50 was 3 nM.

And the EC50 [3]?
The EC50 was 30 nM.

What does the source list for `CCCCC[C@H](O)/C=C/[C@H]1[C@H](O)CC(=O)[C@@H]1C/C=C\CCCC(=O)O` [PGE2]?
IC50 [1]: 3300 nM; EC50 [2]: > 100 nM; EC50 [3]: > 1000 nM

With `CCCCC[C@H](O)/C=C/[C@@H]1[C@@H](C/C=C\CCCC(=O)O)[C@@H](O)C[C@H]1O` [PGF2α] as the compound, how does the IC50 [1] read?
The IC50 was 1500 nM.

And the EC50 [2]?
The EC50 was greater than 100 nM.

And the EC50 [3]?
Its EC50 is greater than 1000 nM.

From patent publication US6878522B2, “Methods for the identification of compounds useful for the treatment of disease states mediated by prostaglandin D2” (priority 2000, dated 2005)
